Tested on: rat taxol induced neuropathy model
Assay: Rat taxol neuropathy model (sensory nerve conduction velocity)
Type: in vivo, Sprague-Dawley female rats
Conditions: once daily
Procedure: In vivo efficacy of representative compounds were tested with rat taxol induced neuropathy model reported by Cliffer et al. (Ann. Neurol 43:46-55, 1998).
Method Sprague-Dawley female rats (215-225g) were used. One week prior to the initiation of dosing with test compounds, base line electrophysiological recording were obtained. Dosing of the test compounds was initiated one day prior to the first injection of taxol (A.G. Scientific). Beginning on Day 2 animals were injected with total of two doses of 15 mg/kg paclitaxel giving 3 days apart, for a cumulative dose of […].
On Day 1 of the study, all rat were randomized into groups of 10 each and weighed. Dosing with test compounds was initiated on Day 1 and continued for a total of 45 days. Test compounds were administered by intraperitoneal (i.p.) injection or by post orum (p.o.) gavage in conscious once daily. Paclitaxel was administered on Day 2 and 5 by tail vein injection at 6 mg/ml in 50% saline/25%Cremophore/25% ethanol. One group was given the paclitaxel vehicle alone in an equivalent volume. Test compounds were formulated for dosing daily, immediately prior to dosing. The compounds were formulated by adding 15% of the final volume of pure PEG400 to the compounds and mixed on an orbital shaker for 40 minutes. Following dissolution, saline was added and the solution was vortexed. Taxol (A.G. Scientific) is solvated with Cremophore-ethanol vehicle at 12 mg/ml and then diluted 50/50 with saline. The test compounds are solvated with saline at appropriate concentration.
Sensory and motor nerve conduction velocities were evaluated using a method based in the protocol described by De Koning and Gispen (Peptides 8:415-422, 1987). Electrophysiological evaluation was carried out as a double blind study. Animals were anesthetized with isofluorane. In order to maintain body temperature, anesthetized animals were placed on Deltaphase ™ Isothermal Pads and rectal temperatures were monitored. Stimulating needle electrodes were inserted close to the sciatic nerve at the sciatic notch and the tibial nerve near the ankle. Subcutaneous recording electrodes were placed over the distal lumbricales foot muscles. Stimuli were supramaximal square-waves of 0.1 msec duration generated with a Grass S88 Stimulator through a Grass stimulation isolation unit. An ETH-260 Bride/Bio Amplifier (CB Sciences Inc), computer (Macintosh Iici), and data acquisition system (MacLab/200) were used for the recordings. The motor and sensory nerve conduction velocities were calculated by measuring the distance between the sciatic notch and ankle sites, and the latency between the M-wave and the H-reflex. The electrophysiological evaluations were conducted 2 weeks later. Statistical analysis was carried out using unpaired t-tests and repeated measures of analysis of variance (ANOVA) using Statview. In all cases 5% was chosen as the level of statistical significance in two-tailed tests.

[1] = p.o. administration, 20 mg/kg, FIG. 2, 3

SMILES	amelioration of taxol-induced retardation of sensory nerve conduction velocity [1]	also measured
COC(=O)CC(CSC[C@H](NC(C)=O)C(=O)OC)C(=O)c1cccnc1 (stereo partly drawn) [compound 60]		amelioration of taxol-induced retardation of sensory nerve conduction velocity (i.p. administration at 10 mg/kg, FIG. 1, 3): active
CC(=O)N[C@@H](CSCC(CC(=O)N(C)C)C(=O)c1cccnc1)C(=O)N1CCN(C)CC1 (stereo partly drawn) [compound 440]	active	
CCN(CC)CCN(C)C(=O)C(CSCC(CC(=O)N(C)C)C(=O)c1cccnc1)NC(C)=O (stereo not drawn) [compound 438]	active	
CC(=O)NCCSCC(CC(=O)N(C)C)C(=O)c1cccnc1 (stereo not drawn) [compound 188]		amelioration of taxol-induced retardation of sensory nerve conduction velocity (p.o. administration, 40 mg/kg, FIG. 2, 3): active
CC(=O)NCCSCC(CC(=O)N1CCCCC1)C(=O)c1cccnc1 (stereo not drawn) [compound 189]	active	amelioration of taxol-induced retardation of sensory nerve conduction velocity (i.p. administration at 2.5 mg/kg, FIG. 2): active

From US6399606B1, “Neuroprotective agents and methods related thereto” (Nippon Kayaku Co., Ltd., priority 1999, dated 2002)
